# Laboratory results published in ChEMBL document CHEMBL1201862, “PubChem BioAssay data set” (2004).
#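 These data come from cells grown in 96-well plates and exposed to compound for 48 hours at five concentrations. At the GI50, growth is halved.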 Calls of active or inactive are those of the source. No stated cut-off is given here; in the data, active = GI50 up to about 1.1 µM and inactive = higher.
# Legend:
# Assay in all cases: NCI anticancer screen, dose series, 48 h
# [1] = system: NCI-H522
# [2] = system: HL-60
# [3] = system: SF-268
# [4] = system: SK-OV-3
# [5] = system: OVCAR-5
# [6] = system: SNB-19
# [7] = system: SK-MEL-2
# [8] = system: EKVX
# [9] = system: HT-29
# [10] = system: Malme-3M
# [11] = system: HCC 2998
# [12] = system: SR
# [13] = system: LOX IMVI
# [14] = system: 786-0
# [15] = system: HCT-116
# [16] = system: OVCAR-3
# [17] = system: K562
# [18] = system: SW-620
# [19] = system: UACC-62
# [20] = system: UACC-257
SMILES,GI50 [1],GI50 [2],GI50 [3],GI50 [4],GI50 [5],GI50 [6],GI50 [7],GI50 [8],GI50 [9],GI50 [10],GI50 [11],GI50 [12],GI50 [13],GI50 [14],GI50 [15],GI50 [16],GI50 [17],GI50 [18],GI50 [19],GI50 [20]
CC1=C(NC(=O)C(=O)NNC(=O)c2ccncc2)C(=O)c2ccccc2C1=O,12.4 µM (inactive),10.8 µM (inactive),23.6 µM (inactive),28.1 µM (inactive),17 µM (inactive),17.5 µM (inactive),2.3 µM (inactive),13.5 µM (inactive),15.5 µM (inactive),5.26 µM (inactive),16.9 µM (inactive),9.12 µM (inactive),3.66 µM (inactive),18.2 µM (inactive),11.4 µM (inactive),4.08 µM (inactive),24.1 µM (inactive),15.7 µM (inactive),2.52 µM (inactive),9.77 µM (inactive)
COc1ccc(CC(C#N)c2cc(OC)c(OC)c(OC)c2)cc1 (stereo not given),0.0267 µM (active),0.0258 µM (active),0.204 µM (active),0.0474 µM (active),6.27 µM (inactive),0.0986 µM (active),0.0775 µM (active),1.56 µM (inactive),0.029 µM (active),0.0361 µM (active),< 0.0416 µM (active),0.0206 µM (active),0.0328 µM (active),0.125 µM (active),0.0466 µM (active),0.0279 µM (active),0.0248 µM (active),0.0236 µM (active),0.0275 µM (active),0.0356 µM (active)
NC(=O)c1ccc[n+](C2=C([N-]S(=O)(=O)c3ccccc3)C(=O)c3ccccc3C2=O)c1,10.9 µM (inactive),18.5 µM (inactive),16.6 µM (inactive),29.4 µM (inactive),19.1 µM (inactive),15.8 µM (inactive),12.8 µM (inactive),14.3 µM (inactive),17.1 µM (inactive),6.22 µM (inactive),10.3 µM (inactive),33.6 µM (inactive),12.9 µM (inactive),17.8 µM (inactive),17.5 µM (inactive),5.08 µM (inactive),64.3 µM (inactive),16.6 µM (inactive),17.9 µM (inactive),14.2 µM (inactive)
CC(=O)c1cccc(C)c1C(=O)O,> 100 µM (inactive),> 100 µM (inactive),> 100 µM (inactive),> 100 µM (inactive),> 100 µM (inactive),> 100 µM (inactive),> 100 µM (inactive),> 100 µM (inactive),> 100 µM (inactive),> 100 µM (inactive),> 100 µM (inactive),> 100 µM (inactive),> 100 µM (inactive),> 100 µM (inactive),> 100 µM (inactive),> 100 µM (inactive),> 100 µM (inactive),> 100 µM (inactive),> 100 µM (inactive),> 100 µM (inactive)
CC1=C2C(=CC(C)(CO)C2O)C(=O)C(C)(O)C12CC2 (stereo not given),0.000776 µM (active),0.00131 µM (active),0.00114 µM (active),0.005 µM (active),0.00673 µM (active),0.00474 µM (active),0.00148 µM (active),0.0103 µM (active),0.00154 µM (active),0.00361 µM (active),0.00213 µM (active),0.00347 µM (active),0.00161 µM (active),0.00337 µM (active),0.00123 µM (active),0.00493 µM (active),0.00279 µM (active),0.00142 µM (active),0.00286 µM (active),0.00249 µM (active)
